Laboratory results taken from article PMC8187357 (Communications Biology, 2021).
Several values for one entry are separate records, joined by “and”; a condition that tells them apart may be missing. Equal entries are not always repeated. Entries after “also recorded” stand apart in the source; their conditions may differ.

How the values were obtained:
PD-L1 [1] = molecular target: T1, PD-L1 (Mus musculus, UniProt Q9EP73); assay: Rescue of IFN-γ release inhibited by PD-L1, mouse splenocytes; type: cell-based; conditions: mean ± S.D.; n=2; read-out: Mouse Splenocyte IFN-γ Rescue EC50 PD-L1
T1 construct: purchased R&D Systems 1019-B7-100
T1 sequence (Q9EP73 with tags, fused parts or gaps limits assumed): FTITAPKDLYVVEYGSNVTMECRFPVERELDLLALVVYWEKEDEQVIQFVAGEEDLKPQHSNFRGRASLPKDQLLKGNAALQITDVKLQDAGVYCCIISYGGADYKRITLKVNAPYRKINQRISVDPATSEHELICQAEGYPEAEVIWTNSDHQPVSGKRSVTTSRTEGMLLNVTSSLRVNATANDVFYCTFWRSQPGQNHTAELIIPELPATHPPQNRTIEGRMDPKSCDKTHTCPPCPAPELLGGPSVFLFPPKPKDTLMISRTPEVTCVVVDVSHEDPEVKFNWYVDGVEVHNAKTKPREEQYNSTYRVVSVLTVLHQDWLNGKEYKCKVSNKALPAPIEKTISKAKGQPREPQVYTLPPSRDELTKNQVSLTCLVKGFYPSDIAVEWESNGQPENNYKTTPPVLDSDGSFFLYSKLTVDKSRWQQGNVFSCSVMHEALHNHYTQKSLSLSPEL
Description: The ability of peptides, peptidomimetics, and small molecules were analyzed for their ability to rescue T-cell proliferation or IFN-γ release from the inhibitory activity of PD-L1 or PD-L2 in a splenocyte/PBMC-based functional assay as per the protocols reported in publication[20]. […] For all in vitro assays, test agent stock was prepared in water and diluted further in the assay media to achieve test concentrations. Each experimental condition was carried out in triplicates. Percent rescue for a given test compound concentration was calculated by normalizing individual percent test agent proliferation or IFN-γ release values to percent anti-CD3 and anti-CD28 antibodies stimulated proliferation or IFN-γ release. EC50 values were derived by plotting transformed data into non-linear fit in sigmoidal dose–response curve using GraphPad Prism software (Version 7).

CTLA4 = molecular target: T2, CTLA4 (Homo sapiens, UniProt P16410); assay: CTLA4-B7.1 functional assay (IL-2, Jurkat T cells); type: cell-based; conditions: for IL2: Jurkat + B7.1 + PHA + CTLA-4 200 ng/mL, replicates
T2 construct: Fc (Ig); purchased R & D systems 325-CT
T2 sequence (P16410 with tags, fused parts or gaps limits assumed): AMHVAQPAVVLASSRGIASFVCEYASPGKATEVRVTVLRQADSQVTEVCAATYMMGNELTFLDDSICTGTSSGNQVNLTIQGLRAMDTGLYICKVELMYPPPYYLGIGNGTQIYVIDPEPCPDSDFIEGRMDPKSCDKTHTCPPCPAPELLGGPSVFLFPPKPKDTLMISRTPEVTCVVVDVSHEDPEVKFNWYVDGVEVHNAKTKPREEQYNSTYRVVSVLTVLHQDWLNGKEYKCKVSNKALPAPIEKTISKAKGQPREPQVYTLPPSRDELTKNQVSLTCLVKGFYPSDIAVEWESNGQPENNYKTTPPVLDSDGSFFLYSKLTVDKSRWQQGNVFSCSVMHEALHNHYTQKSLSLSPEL
Description: CA-170 was evaluated for its potential impact on B7.1 mediated immune-inhibitory interaction with CTLA4 by monitoring the rescue of release of IL-2 in the presence of recombinant CTLA4-Ig and B7.1 in T cells stimulated with phytohemagglutinin (PHA). Briefly, Jurkat T cells (0.25 × 10^5 cells/well of a 96-well plate) grown and starved in serum-free RPMI1640 media for 2 h were stimulated with PHA (10 µg/mL) and B7.1 (500 ng/mL) in the presence of recombinant human CTLA4-Ig (200 ng/mL) and different concentrations of CA-170 and cultured for 48 h at 37 °C. After 48 h of cell culture, supernatant was analyzed for IL-2 by ELISA. Anti-CTLA4 antibody and isotypes were used as controls.

[2] = tested on: CT26 colon carcinoma model; assay: Immune pharmacodynamics in CT26 colon carcinoma model; type: in vivo, mouse; conditions: CT26 tumor infiltrating lymphocytes, CA-170 10 mg/kg daily, PD-1 antibody J43 100 µg/animal, 5 days, individual animals
Text: For the measurement of immune pharmacodynamics, CT26 cells were subcutaneously implanted into 5 to 7 weeks old male Balb/c mice by injecting 1 million CT26 tumor cells/ animal. When tumor volume reached ~200mm^3, animals were randomized and allocated to three treatment groups (n = 5). Similarly, for the measurement of immune pharmacodynamics in MC38 model, MC38 cell lines were subcutaneously implanted into 5 to 7 weeks old male C57B6 mice by injecting 0.5 million cells/animal. Dosing was initiated when tumor volume reached ~100 mm^3. In both tumor models, mice were orally treated daily with vehicle and CA-170 (10 mg/kg) for 5 days. As an additional control, anti-PD1 antibody (100 μg/animal, clone J43) was dosed intraperitoneally on day 1. After 24 h of last dosing, animals were sacrificed, and blood samples and tumor tissues were collected from each animal and processed for PD evaluation using antibodies shown in Supplementary Table 1 and specific methods reported in publication[51] and analyzed by FACS. The gating strategy is detailed in Supplementary Fig. 3.

CT26 colon carcinoma = assay: CT26 model, survival in combination with cyclophosphamide; type: in vivo, mouse; conditions: CT26
Description: Studies in syngeneic models including B16 melanoma metastasis model and CT26 colon carcinoma subcutaneous model were performed as described. For the Docetaxel combination experiment in CT26 model, indicated dosage of docetaxel (Source: Docetere® injection by Dr Reddy’s Laboratories) was dosed intraperitoneally to animals. For the CA-170 combination groups, CA-170 (10 mg/kg/day, oral) was dosed ~10 min after docetaxel. Animal grouping, treatment efficacy assessment and %TGI calculations were performed as mentioned above. For the CT26 experiment with cyclophosphamide, 100 mg/kg of cyclophosphamide was dosed once on day 5 intraperitoneally after cell implantation (first day of dosing for all other groups). Anti-PD1 antibody (Clone J43 from BioXcel) was dosed intraperitoneally at 100 µg/animal once every week.

CT26 tumor model = assay: Tumor-infiltrating Tregs and CD8/FoxP3 ratio in CT26 model; type: in vivo, mouse
Text: Supplementary Figure 2: Effect of CA-170 alone and in combination with CTX on CD8/FoxP3 […]
administration of CA-170 in CT26 tumor model, as observed by the measuring CD4+CD25+FoxP3+ cells. However, an increase in the number of infiltrating CD8+ T cells increased in CA-170 + CTX treated group, led to a favourable increase in the ratio of CD8+T cells […]
(1 picture or pasted object on this page, not shown here)

Cannabinoid CB1 = molecular target: T3, Cannabinoid CB1 (Homo sapiens, UniProt P21554); assay: CEREP 80 panel binding: Cannabinoid; conditions: read-out: % Inhibition of Control Specific Binding
T3 construct: Eurofins Cerep Panlabs
T3 sequence (P21554 whole entry): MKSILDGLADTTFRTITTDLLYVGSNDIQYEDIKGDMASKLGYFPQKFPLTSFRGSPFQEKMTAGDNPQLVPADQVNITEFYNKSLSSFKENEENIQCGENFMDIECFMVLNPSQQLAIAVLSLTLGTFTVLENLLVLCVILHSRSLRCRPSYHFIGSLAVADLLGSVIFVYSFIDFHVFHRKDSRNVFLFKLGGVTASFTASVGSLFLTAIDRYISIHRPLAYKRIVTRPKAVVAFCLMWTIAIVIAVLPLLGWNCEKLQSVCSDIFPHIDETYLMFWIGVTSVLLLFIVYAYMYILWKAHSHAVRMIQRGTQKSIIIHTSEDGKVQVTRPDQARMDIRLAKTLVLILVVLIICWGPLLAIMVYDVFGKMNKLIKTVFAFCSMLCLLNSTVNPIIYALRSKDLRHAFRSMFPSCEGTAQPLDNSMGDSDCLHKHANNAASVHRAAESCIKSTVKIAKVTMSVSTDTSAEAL
Description: (§1) CEREP 80 panel assay was carried out by Eurofins Cerep Panlabs facility at France. A series of binding assays was carried out to understand the off-target toxicity of CA-170. CA-170 was tested at 10 μM test concentration in duplicates. Compound binding was calculated as a % inhibition of the binding of a radioactively labeled ligand specific for each target. In each experiment the respective reference compound was tested concurrently with CA-170, and the data were compared with historical values determined at Eurofins. The experiment was accepted in accordance with Eurofins validation standard operating procedure. The results are expressed as a percent of control specific binding; (measured specific binding / control specific binding) × 100 and as a percent inhibition of control specific binding; 100−(measured specific binding / control specific binding) × 100 obtained in the presence of CA-170. The IC50 values (concentration causing a half-maximal inhibition of control specific binding) and Hill coefficients (nH) were determined by non-linear regression analysis of the competition curves generated with mean replicate values using Hill equation curve fitting.

PDGF = assay: CEREP 80 panel binding: Growth factors; conditions: 10 µM
Description: as §1

Chemokines CCR1, CXCR2 = assay: CEREP 80 panel binding: Chemokines; conditions: 10 µM
Description: as §1

Melanocortin MC4 = molecular target: T4, Melanocortin MC4 (Homo sapiens, UniProt P32245); assay: CEREP 80 panel binding: Melanocortin; conditions: read-out: % Inhibition of Control Specific Binding
T4 construct: Eurofins Cerep Panlabs (contract assay)
T4 sequence (P32245 whole entry): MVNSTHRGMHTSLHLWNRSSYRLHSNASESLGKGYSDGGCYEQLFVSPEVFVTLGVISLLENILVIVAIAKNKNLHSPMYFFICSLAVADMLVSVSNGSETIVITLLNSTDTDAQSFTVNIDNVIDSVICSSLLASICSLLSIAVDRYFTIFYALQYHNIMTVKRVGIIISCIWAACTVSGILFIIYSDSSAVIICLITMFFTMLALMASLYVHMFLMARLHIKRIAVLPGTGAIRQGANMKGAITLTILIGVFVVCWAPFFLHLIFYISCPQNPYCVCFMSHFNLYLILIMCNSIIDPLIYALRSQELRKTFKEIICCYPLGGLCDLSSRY
Description: as §1

DOP, KOP, MOP, NOP = assay: CEREP 80 panel binding: Opioid & Opioid like; conditions: 10 µM
Description: as §1

GR, PPARγ = assay: CEREP 80 panel binding: Nuclear receptors; conditions: 10 µM
Description: as §1

[3] = tested on: Classical Hodgkin lymphoma; design: method as in doi:10.1093/annonc/mdz253.035; conditions: Phase 2, Lugano criteria; cited from earlier work
Plasma stability, mice = conditions: mouse
Description: Test compounds were tested for plasma stability (test concentration of 10 μM) as per the protocols reported in publication[20].

PD-L1 [4] = molecular target: PD-L1 (Homo sapiens, UniProt Q9NZQ7); assay: SPR and solution NMR using recombinant extracellular domains; type: binding; design: SPR and solution NMR using recombinant proteins containing extracellular domains; host or cells: E. coli (said of the solution NMR studies); conditions: recombinant proteins containing extracellular domains
PD-L1 (Homo sapiens, UniProt Q9NZQ7), sequence (Q9NZQ7 19-238 limits assumed, species assumed): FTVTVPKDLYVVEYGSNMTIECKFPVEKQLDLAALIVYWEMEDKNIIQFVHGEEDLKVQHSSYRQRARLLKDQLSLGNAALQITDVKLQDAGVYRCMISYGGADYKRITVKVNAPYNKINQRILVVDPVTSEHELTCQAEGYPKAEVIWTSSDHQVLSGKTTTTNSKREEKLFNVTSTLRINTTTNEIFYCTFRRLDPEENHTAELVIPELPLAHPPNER

C[C@@H](O)[C@H](NC(=O)N[C@@H](CC(N)=O)c1nc([C@@H](N)CO)no1)C(=O)O [CA-170]
EC50 (PD-L1 [1]): 34.6 nM | IL2 (CTLA4; 10 nM): 100.732 pg/mL and 119.610 pg/mL and 100.195 pg/mL | IL2 (CTLA4; 100 nM): 131.122 pg/mL and 123.634 pg/mL and 97.951 pg/mL | IL2 (CTLA4; 1000 nM): 139.927 pg/mL and 131.366 pg/mL and 108.171 pg/mL | rescue of IL-2 release inhibited by recombinant hCTLA-4 (in words) (CTLA4; Jurkat cells stimulated with PHA + human B7-1): did not rescue the release of IL-2 | Ki-67+ cells % Live, CD45+, CD3+, CD4+ T cells [2]: 57.1% and 63.22% and 64.66% and 82.55% and 45.02% | Ki-67+ cells % Live, CD45+, CD3+, CD8+ T cells [2]: 71.24% and 82.88% and 69.7% and 88.94% and 68.84% | OX-40+ cells % Live, CD45+, CD3+, CD4+ T cells [2]: 56.66% and 56.78% and 46.34% and 42.73% and 29.6% | OX-40+ cells % Live, CD45+, CD3+, CD8+ T cells [2]: 87.3% and 96.29% and 95.65% and 95.1% and 35.3% | survival advantage vs vehicle + CTX (in words) (CT26 colon carcinoma; CA-170 3 mg/kg/day + single dose CTX 100 mg/kg): Statistically significant survival advantage | survival advantage vs vehicle + CTX (in words) (CT26 colon carcinoma; CA-170 10 mg/kg/day + single dose CTX 100 mg/kg): Statistically significant survival advantage | levels of tumor-infiltrating Tregs (CD4+CD25+FoxP3+ cells; in words) (CT26 tumor model; CA-170): No significant change | ratio of CD8+T cells to Tregs (in words) (CT26 tumor model; CA-170 + CTX): increased significantly | inhibition at 10 µM (Cannabinoid CB1): 12% | % Inhibition of Control Specific Binding (PDGF): 6% | % Inhibition of Control Specific Binding (Chemokines CCR1, CXCR2): 1% | inhibition at 10 µM (Melanocortin MC4): 0% | % Inhibition of Control Specific Binding (DOP, KOP, MOP, NOP): ≤ 9% | % Inhibition of Control Specific Binding (GR, PPARγ): ≤ 7% | ORR [3]: 30% | remaining at 4 h, 10 μM (Plasma stability, mice): > 95% | binding to PD-L1 by SPR and solution NMR (in words) (PD-L1 [4]): a definitive binding could not be established; also recorded: lack of binding
